Reference: US8124111B2, “Immunomodulation by altering sphingosine 1-phosphate lyase (SPL) activity” (Children's Hospital & Research Center at Oakland, priority 2005, dated 2012)

Columns and labels:
Lymphocytes = test: Lymphocyte counts after FTY720 treatment; assay type: in vivo, mice
Description: (§1) Drug treatments and leukocyte/lymphocyte counts: Four-week old FVB or C3H mice were obtained from Charles River Laboratories (Wilmington, Mass.). Animals were maintained in a pathogen-free facility in microisolator cages. Mice were anaesthetized with isoflurane inhalation, and a single dose of FTY720 (at 1 or 3 mg/kg) or GT11 (at 1, 10 or 100 mg/kg) in sterile water was injected intraperitoneally at time zero. Blood counts were determined by Coulter counter (Coulter Instruments, Hialeah, Fla.) and by manual differential counting. Mice were euthanized by CO2 inhalation at various time points post-injection, followed by tissue harvest. All animal studies were performed in accordance with approved CHORI IACUC protocols.
(§2) Inhibition of SPL by FTY720 in vivo—The effect on SPL enzyme activity of FTY720 administration was tested. Four-week old female FVB mice were given 1 mg/kg FTY720 by intraperitoneal injection, and tissue SPL activity in thymus was assessed over time. […] SPL inhibition occurred concomitantly with lymphopenia, and was consistent with the timing of lymphopenia reported previously (Chiba et al., (1998) J Immunol 160, 5037-5044) (Table 1).

SPL = biological target: T1, SPL (Mus musculus, UniProt Q8R0X7); test: SPL activity in thymic tissue after FTY720 administration in vivo; set-up: species or system FVB mice; details: for SPL enzyme inhibition in tissue homogenates: animals treated with FTY720 for 24 hours
T1 construct: from tissue; host or cells: thymus of FVB mice
T1 sequence (Q8R0X7 1-568): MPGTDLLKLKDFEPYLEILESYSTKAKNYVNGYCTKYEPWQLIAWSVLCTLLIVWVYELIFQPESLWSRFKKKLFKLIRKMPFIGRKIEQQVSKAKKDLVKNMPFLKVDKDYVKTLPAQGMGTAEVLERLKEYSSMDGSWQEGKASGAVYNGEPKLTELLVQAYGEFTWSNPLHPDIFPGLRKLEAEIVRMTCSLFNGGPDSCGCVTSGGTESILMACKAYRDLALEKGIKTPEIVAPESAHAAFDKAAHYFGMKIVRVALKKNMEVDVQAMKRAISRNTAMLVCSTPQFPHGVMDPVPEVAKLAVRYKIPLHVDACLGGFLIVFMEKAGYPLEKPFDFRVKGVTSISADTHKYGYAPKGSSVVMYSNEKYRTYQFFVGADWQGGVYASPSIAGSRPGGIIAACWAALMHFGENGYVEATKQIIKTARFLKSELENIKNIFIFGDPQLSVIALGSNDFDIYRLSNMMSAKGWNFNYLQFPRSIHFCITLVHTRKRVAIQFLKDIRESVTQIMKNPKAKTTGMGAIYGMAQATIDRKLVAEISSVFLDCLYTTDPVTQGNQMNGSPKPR
Description: One mg/kg FTY720 was administered by peritoneal injection to FVB mice at time zero. Mice were euthanized at the indicated times, and SPL activity in thymic tissue was determined.
as §1
SPL enzyme assay: Tissues were homogenized by sonication in 9 volumes of ice-cold homogenization buffer (5 mM MOPS pH 7.5, 1 mM DTT, 1 mM EDTA, 0.25 M sucrose, and 5 micrograms/ml each chymostatin, leupeptin, pepstatin A and antipain). SPL assays were conducted using 50 micrograms protein per assay and radioactive [4,5 ^3H]DHS1P substrate, as described previously (Reiss et al., (2004) J Biol Chem 279, 1281-1290). For in vitro FTY720 and FTY720-P experiments, drug was incubated with whole cell extracts prepared from HEK293 cells infected with an adenoviral vector expressing human SPL. These extracts contained approximately 200 picomoles/mg protein/minute SPL activity. Drug was incubated with extracts for 30 minutes, followed by addition of extracts to reaction buffer and substrate to initiate the reaction.
as §2
To address whether the inhibition of SPL activity in homogenates of tissues isolated from FTY720 treated animals was reversible, tissue SPL activity was measured in the presence of increasing amounts of non-radiolabeled DHS1P substrate.

S1P = S1P measurements in murine tissue after FTY720 treatment; assay type: in vivo
Description: as §1
S1P measurements: S1P was isolated by two-phase lipid extraction, derivatized with OPA and quantitated by HPLC essentially as described (Jiang et al, (2004) Proc Natl Acad Sci USA 101, 17825-17830; Fyrst et al., (2004) J Lipid Res 45, 54-62; Caligan et al., (2000) Anal. Biochem. 281, 36-44). All tissues were weighed prior to snap freezing in liquid nitrogen and were stored at −100° C. until processing. One nanomole of C17-S1P and PSo were added as internal standards before homogenization of tissues. Lipids were extracted with 1 ml mixture of chloroform and methanol (1:2 ratio). Samples were incubated at room temperature with sonication for 3 hours and then dried by speed vac. One ml of 0.1N NaOH in methanol was added for 1 hour at 37° C. to achieve hydrolysis. After addition of 4 ml chloroform and 4 ml 1M KCl, samples were mixed and phases separated by centrifugation. The organic phase was collected and dried for sphingosine determination. The aqueous phase was mixed with 300 μl concentrated HCl and 6 ml chloroform. The phases were separated by centrifugation, and the organic phase was collected and dried for S1P determination. All samples for S1P determination were re-dissolved in methanol. After derivation with OPA, samples were injected onto HPLC for quantification. The mobile phase was methanol:10 mM phosphate buffer (pH 7.2):1M tetrabutylammonium dihydrogen phosphate (TBAP) in water=83:16:1, v/v/v and the flow rate was 1 ml/min.
FTY720 administration minimally affects tissue SIP levels—SK is known to be responsible for S1P synthesis, whereas SPL and S1P phosphatases are responsible for S1P catabolism. Since FTY720 interacts with both SK and SPL and may potentially influence the efficiency of both S1P synthesis and degradation, the sum effect of FTY270 administration on tissue S1P levels was determined. FTY720 treatment was associated with a slight increase in thymic tissue S1P at 36 hours, followed by a return to baseline levels by 48 hours (Table 2). […] S1P levels increased somewhat more dramatically in splenic tissue after FTY720 treatment (Table 2). […] According to non-limiting theory, simultaneous inhibition of SPL may account for the stability of tissue S1P levels in response to drug treatment.

[1] = 1 mg/kg FTY720 intraperitoneal, FVB mice, thymus

CCCCCCCCc1ccc(CCC(N)(CO)CO)cc1 [FTY720]
Lymphocytes (Lymphocytes; 24 hours after FTY720): 2.2 1000/μL
Lymphocytes (Lymphocytes; 48 hours after FTY720): 3.2 1000/μL
Lymphocytes (Lymphocytes; 72 hours after FTY720): 2.0 1000/μL
earliest time at which inhibition of SPL was noted (SPL; [1]): 12 h
time by which SPL inhibition began to reverse (SPL; [1]): ≤ 48 h
SPL enzyme inhibition in tissue homogenates (SPL; 10 nmol substrate (standard assay conditions)): 21%
SPL enzyme inhibition in tissue homogenates (SPL; 40 nmol unlabeled substrate): 25%
SPL enzyme inhibition in tissue homogenates (SPL; 2-fold increase in unlabeled DHS1P substrate): 14%
inhibition at 1 mg/kg (SPL; mouse, ip, 1 mg/kg FTY720 intraperitoneal, FVB mice, thymus, at 36 hours, read-out: peak inhibition of SPL activity): ~40%
S1P (spleen) (S1P; 24 hours after FTY720): 15121.31 picomoles per gram of wet weight tissue
S1P (spleen) (S1P; 36 hours after FTY720): 18482.30 picomoles per gram of wet weight tissue
S1P (spleen) (S1P; 48 hours after FTY720): 12365.84 picomoles per gram of wet weight tissue
Dihydrosphingosine-1-P (DHS1P) tissue levels (S1P; throughout 48 hours of treatment): remained stable
S1P (thymus) (S1P; 24 hours after FTY720): 3000.69 picomoles per gram of wet weight tissue
S1P (thymus) (S1P; 36 hours after FTY720): 3917.48 picomoles per gram of wet weight tissue
S1P (thymus) (S1P; 48 hours after FTY720): 3194.45 picomoles per gram of wet weight tissue
